Test results reported in patent US6319897A, “Peptides which inhibit complement activation” (priority 1999, dated 2001).
pIC50: −log10 of the molar value. Where two headings read alike, the source gives them in different places. Where a SMILES comes first, the peptide text is derived from it. Bridges are numbered along the chain shown (N, C = ends). The star is where a group is joined. Cam = NC(=O)C*

Molecular target: alternative pathway of complement activation (Homo sapiens, UniProt P01024)
Assay: Hemolytic assay, alternative pathway: lysis of rabbit erythrocytes in normal human serum with MgEGTA
Format: cell-based
Procedure: Inhibition of the alternative pathway was measured by using rabbit erythrocytes in the presence of MgEGTA (FIG. 3A); inhibition of lysis of antibody-coated sheep erythrocytes was used as an indicator of inhibition of the classical pathway (FIG. 3B).
Inhibition of classical and alternative pathway activity by the peptides was measured. […] The reaction mixture was incubated at 37° C. for 1 hour and centrifuged. […] The effect of peptides on the alternative pathway was determined by measuring the lysis of rabbit erythrocytes (Er) in NHS. Various concentrations of peptide were mixed with 5 μl of NHS, 5 μl of MgEGTA and 10 μl of Er (1×10^9 /ml) and brought to a final volume of 100 μl in GVB. The reaction mixture was incubated at 37° C. for 20 minutes and stopped by adding 200 μl of GVBE. […] The percentage of lysis was normalized by considering 100% lysis to be equal to the lysis occurring in the absence of the peptide.

[1] = read-out: ALTERNATIVE PATHWAY IC50

Chain of alternative pathway of complement activation (P01024 23-1663): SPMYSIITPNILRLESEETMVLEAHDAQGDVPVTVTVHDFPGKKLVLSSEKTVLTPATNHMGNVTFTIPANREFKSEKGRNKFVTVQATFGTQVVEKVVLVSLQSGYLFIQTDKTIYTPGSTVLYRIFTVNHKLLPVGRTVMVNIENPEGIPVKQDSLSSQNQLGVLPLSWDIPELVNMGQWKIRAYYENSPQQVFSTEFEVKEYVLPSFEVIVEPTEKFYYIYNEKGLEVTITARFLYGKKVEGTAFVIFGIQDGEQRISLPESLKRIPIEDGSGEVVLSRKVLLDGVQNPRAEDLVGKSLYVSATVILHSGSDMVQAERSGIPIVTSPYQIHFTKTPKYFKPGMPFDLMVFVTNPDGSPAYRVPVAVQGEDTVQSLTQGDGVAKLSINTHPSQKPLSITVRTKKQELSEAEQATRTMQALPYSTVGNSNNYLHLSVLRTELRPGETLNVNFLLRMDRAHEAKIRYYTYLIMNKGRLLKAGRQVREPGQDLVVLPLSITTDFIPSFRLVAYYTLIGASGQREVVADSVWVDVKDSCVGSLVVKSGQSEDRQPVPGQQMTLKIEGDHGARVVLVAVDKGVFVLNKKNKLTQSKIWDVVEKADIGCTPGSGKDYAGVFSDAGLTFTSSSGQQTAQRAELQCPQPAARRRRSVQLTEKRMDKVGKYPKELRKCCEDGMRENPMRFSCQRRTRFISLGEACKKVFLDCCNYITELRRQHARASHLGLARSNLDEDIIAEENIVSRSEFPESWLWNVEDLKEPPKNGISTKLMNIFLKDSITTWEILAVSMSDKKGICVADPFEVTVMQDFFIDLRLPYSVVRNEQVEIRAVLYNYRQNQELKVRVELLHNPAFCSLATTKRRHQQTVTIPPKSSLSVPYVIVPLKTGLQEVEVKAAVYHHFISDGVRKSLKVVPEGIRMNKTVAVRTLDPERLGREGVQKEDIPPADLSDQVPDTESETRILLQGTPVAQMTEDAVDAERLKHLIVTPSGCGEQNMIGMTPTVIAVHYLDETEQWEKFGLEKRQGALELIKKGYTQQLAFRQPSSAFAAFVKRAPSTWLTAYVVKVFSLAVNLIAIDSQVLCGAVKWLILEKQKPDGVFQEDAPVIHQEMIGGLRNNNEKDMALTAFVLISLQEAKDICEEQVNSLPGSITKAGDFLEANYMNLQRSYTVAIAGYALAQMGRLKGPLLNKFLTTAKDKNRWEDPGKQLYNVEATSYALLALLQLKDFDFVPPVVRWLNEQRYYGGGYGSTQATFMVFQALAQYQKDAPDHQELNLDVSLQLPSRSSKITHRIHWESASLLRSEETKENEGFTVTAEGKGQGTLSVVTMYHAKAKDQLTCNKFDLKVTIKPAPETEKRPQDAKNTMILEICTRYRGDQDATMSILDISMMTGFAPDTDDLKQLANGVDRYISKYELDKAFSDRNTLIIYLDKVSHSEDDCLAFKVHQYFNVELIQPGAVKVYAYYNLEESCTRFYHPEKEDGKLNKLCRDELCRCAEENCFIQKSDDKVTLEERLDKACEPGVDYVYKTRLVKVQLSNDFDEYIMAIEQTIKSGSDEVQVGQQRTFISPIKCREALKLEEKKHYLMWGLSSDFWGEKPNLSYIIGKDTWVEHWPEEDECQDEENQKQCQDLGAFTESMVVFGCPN

Row | Compound | pIC50 (read-out: A[…] IC50) | pIC50 [1]
1 | CC(C)[C@@H]1NC(=O)[C@H](C(C)C)NC(=O)[C@@H](N)CSSC[C@@H](C(N)=O)NC(=O)[C@H](CCCNC(=N)N)NC(=O)[C@H](Cc2c[nH]cn2)NC(=O)[C@H](Cc2c[nH]cn2)NC(=O)[C@H](C)NC(=O)[C@H](Cc2c[nH]c3ccccc23)NC(=O)[C@H](CC(=O)O)NC(=O)[C@H](CCC(N)=O)NC1=O [XX] (H-CVVQDWAHHRC-NH2; disulfide 1-11) | < 2.92 | –
2 | CC(C)[C@@H]1NC(=O)[C@H](C(C)C)NC(=O)[C@@H](N)CSSC[C@@H](C(N)=O)NC(=O)[C@H](CCCNC(=N)N)NC(=O)[C@H](Cc2c[nH]cn2)NC(=O)[C@H](Cc2c[nH]cn2)NC(=O)CNC(=O)[C@H](Cc2c[nH]c3ccccc23)NC(=O)[C@H](CC(=O)O)NC(=O)[C@H](CCC(N)=O)NC1=O [VI] (H-CVVQDWGHHRC-NH2; disulfide 1-11) | 4.48 | –
3 | C[C@@H](O)[C@H](NC(=O)[C@@H]1CSSC[C@H](N)C(=O)NCC(=O)N[C@@H](Cc2c[nH]cn2)C(=O)N[C@@H](Cc2c[nH]cn2)C(=O)N[C@@H](CCCNC(=N)N)C(=O)N1)C(N)=O [VIII] (H-CGHHRCT-NH2; disulfide 1-6) | – | < 3.22
4 | CC(C)[C@@H]1NC(=O)[C@H](C)NC(=O)[C@@H](N)CSSC[C@@H](C(N)=O)NC(=O)[C@H](CCCNC(=N)N)NC(=O)[C@H](Cc2c[nH]cn2)NC(=O)[C@H](Cc2c[nH]cn2)NC(=O)CNC(=O)[C@H](Cc2c[nH]c3ccccc23)NC(=O)[C@H](CC(=O)O)NC(=O)[C@H](CCC(N)=O)NC1=O [XV] (H-CAVQDWGHHRC-NH2; disulfide 1-11) | 2.92 | –
5 | CC(C)[C@@H]1NC(=O)[C@H](C(C)C)NC(=O)[C@@H](N)CSSC[C@@H](C(N)=O)NC(=O)[C@H](CCCNC(=N)N)NC(=O)[C@H](Cc2c[nH]cn2)NC(=O)[C@H](Cc2c[nH]cn2)NC(=O)CNC(=O)[C@H](Cc2c[nH]c3ccccc23)NC(=O)[C@H](C)NC(=O)[C@H](CCC(N)=O)NC1=O [XVIII] (H-CVVQAWGHHRC-NH2; disulfide 1-11) | 3.59 | –
6 | C[C@@H](O)[C@H](NC(=O)[C@@H]1CSSC[C@H](N)C(=O)N[C@@H](CC(=O)O)C(=O)N[C@@H](Cc2c[nH]c3ccccc23)C(=O)NCC(=O)N[C@@H](Cc2c[nH]cn2)C(=O)N[C@@H](Cc2c[nH]cn2)C(=O)N[C@@H](CCCNC(=N)N)C(=O)N1)C(N)=O [X] (H-CDWGHHRCT-NH2; disulfide 1-8) | – | < 3.22
7 | CC(C)[C@@H]1NC(=O)[C@H](C(C)C)NC(=O)[C@@H](N)CSSC[C@@H](C(N)=O)NC(=O)[C@H](CCCNC(=N)N)NC(=O)[C@H](Cc2c[nH]cn2)NC(=O)[C@H](Cc2c[nH]cn2)NC(=O)CNC(=O)[C@H](C)NC(=O)[C@H](CC(=O)O)NC(=O)[C@H](CCC(N)=O)NC1=O [XIX] (H-CVVQDAGHHRC-NH2; disulfide 1-11) | – | 3.74
8 | CC[C@H](C)[C@H](N)C(=O)N[C@@H](CSCC(N)=O)C(=O)N[C@H](C(=O)N[C@H](C(=O)N[C@@H](CCC(N)=O)C(=O)N[C@@H](CC(=O)O)C(=O)N[C@@H](Cc1c[nH]c2ccccc12)C(=O)NCC(=O)N[C@@H](Cc1c[nH]cn1)C(=O)N[C@@H](Cc1c[nH]cn1)C(=O)N[C@@H](CCCNC(=N)N)C(=O)N[C@@H](CSCC(N)=O)C(=O)N[C@H](C(=O)N[C@@H](C)C(=O)NCC(=O)N[C@@H](Cc1c[nH]cn1)C(=O)N[C@@H](CCSC)C(=O)N[C@@H](C)C(=O)N[C@@H](CC(N)=O)C(=O)N[C@@H](CC(C)C)C(=O)N[C@H](C(=O)N[C@@H](CO)C(=O)N[C@@H](Cc1c[nH]cn1)C(=O)N[C@@H](C)C(=O)N[C@@H](CO)C(=O)N[C@@H](C)C(=O)N[C@H](C(N)=O)[C@@H](C)CC)[C@@H](C)O)[C@@H](C)O)C(C)C)C(C)C [II] (H-IC(Cam)VVQDWGHHRC(Cam)TAGHMANLTSHASAI-NH2) | – | < 3.52
9 | C[C@@H](O)[C@H](NC(=O)[C@@H]1CSSC[C@H](N)C(=O)N[C@@H](CCC(N)=O)C(=O)N[C@@H](CC(=O)O)C(=O)N[C@@H](Cc2c[nH]c3ccccc23)C(=O)NCC(=O)N[C@@H](Cc2c[nH]cn2)C(=O)N[C@@H](Cc2c[nH]cn2)C(=O)N[C@@H](CCCNC(=N)N)C(=O)N1)C(N)=O [XI] (H-CQDWGHHRCT-NH2; disulfide 1-9) | – | < 3.22
